Measured values as given in patent US6197797A, “Cyanoguanidines as cell proliferation inhibitors” (Leo Pharmaceutical Products Ltd. A/S (L.o slashed.vens …, priority 1997, dated 2001).

Assays:
[1] = system: human breast cancer (MCF-7); test: Inhibition of tumour cell proliferation in vitro ([3H]thymidine incorporation), MCF-7; type: cell-based; details: MCF7, MCF-7, 24 hours, read-out: The median inhibition concentration (IC50, nM) of MCF-7
Procedure: (§1) The inhibition of tumour cell proliferation was studied using different types of human cancer cell lines. The cell lines under investigation were small cell lung carcinoma (NYH), non small cell lung carcinoma (NCI-H460), and breast cancer (MCF-7) using the following general procedure.
(§2) The cells were cultured in vitro for 24 hours in the presence of the compound under investigation. DNA synthesis was measured by incorporation of [3H]thymidine, and the median inhibitory concentrations (IC50) of the compounds were calculated.

[2] = system: Yoshida sarcoma tumour-bearing rats; test: Prolongation of survival time of tumour-bearing rats; type: in vivo, LEW/Mol inbred female rats
Procedure: The prolongation of survival time of tumour-bearing rats was studied in LEW/Mol inbred female rats inoculated with Yoshida sarcoma cells in a number of 2×10^7 cells. Tumour-bearing rats (6 animals per group) were dosed orally once daily from day 3 after the transfer of tumour cells and until death or for a maximum of 21 days or until the body weights had increased by 10% as a consequence of tumour proliferation. The mean survival day of treated versus non-treated rats is used to calculate ILS (Increased Life Span). ILS=((mean treated/mean control)-1)*100%.

[3] = system: human small cell lung carcinoma (NYH); test: Inhibition of tumour cell proliferation in vitro ([3H]thymidine incorporation), NYH; type: cell-based; details: 24 hours, read-out: The median inhibition concentration (IC50, nM) of NYH
Procedure: as §1, §2

[4] = system: human non small cell lung carcinoma (NCI-H460); test: Inhibition of tumour cell proliferation in vitro ([3H]thymidine incorporation), NCI-H460; type: cell-based; details: NCI-H460, 24 hours, read-out: The median inhibition concentration (IC50, nM) of NCI-H460
Procedure: as §1, §2

[5] = 20 mg/kg p.o. once daily from day 3, ILS=((mean treated/mean control)-1)*100%

N#CNC(=Nc1ccncc1)NCCCCCc1ccccc1 [Example 1, N-Cyano-N'-(5-phenylpentyl)N"-4-pyridylguanidine]
IC50 [1]: 40 nM | Increased life span (ILS) % [2, 5]: 49%

N#CNC(=Nc1ccncc1)NCCCCCCCCCc1ccccc1 [Example 5, N-Cyano-N'-(9-phenylnonyl)-N"-4-pyridylguanidine]
IC50 [3]: 5.3 nM | IC50 [4]: 5.8 nM | IC50 [1]: 29 nM

N#CN=C(NCCCC/C=C\c1ccccc1)Nc1ccncc1 [Example 10, (Z)-N-Cyano-N'-(6-phenylhex-5-enyl)-N"-4-pyridylguanidine]
IC50 [3]: 7.3 nM | IC50 [4]: 135 nM | IC50 [1]: 54 nM | Increased life span (ILS) % [2, 5]: 35%

N#CN=C(NCC/C=C/C=C/c1ccccc1)Nc1ccncc1 [Example 12, (E,E)-N-Cyano-N'-(6-phenylhex-3,5-dienyl)-N"-4-pyridylguanidine]
IC50 [3]: 5.5 nM | IC50 [4]: 49 nM | IC50 [1]: 138 nM

N#CNC(=Nc1ccncc1)NCCCCC#Cc1ccccc1 [Example 14, N-Cyano-N'-(6-phenylhex-5-ynyl)-N"-4-pyridylguanidine]
IC50 [3]: 6.1 nM | IC50 [4]: 78 nM | IC50 [1]: 74 nM

CCCCCCCCCCCCNC(=Nc1ccncc1)NC#N [Example 18, N-Cyano-N'-dodecyl-N"-4-pyridylguanidine]
IC50 [3]: 5 nM | IC50 [4]: 61 nM | IC50 [1]: 19 nM

N#CNC(=Nc1ccncc1)NCCCCCOc1ccccc1 [prior art B, N-Cyano-N'-(5-phenoxypentyl)-N"-4-pyridylguanidine, reference compound]
Increased life span (ILS) % ([2]; 50 mg/kg p.o. once daily from day 3, ILS=((mean treated/mean control)-1)*100%): 35%
